Experimental findings from patent US20120129152A1, “Diagnostic method for the prediction of the development of and control over the effectiveness of treatment of cardiovascular illnesses” (priority 2010, published 2012) are described below.

Holding throughout (assay type): in vivo, human
A short description of experiment [1]: Blood serum lipid complex (lipidogram) of treated patients.
Experiment [2] in a line: Hemodynamic indicators (tetrapolar rheography) of treated patient. The settings on record: Example 1, after Valacyclovir with Nitrosorbidum and Corinfar.
A short description of experiment [3]: Electrocardiogram indices of treated patient. The settings on record: Example 1, after Valacyclovir with Nitrosorbidum and Corinfar.
The subject of another experiment is cytomegalovirus. Briefly: IIF of patients' blood immunocytes: cells infected with cytomegalovirus. Here is the method:
(§1) The task set is addressed through a diagnostic method for the prediction of the development and control of the effectiveness of the treatment of cardiovascular, in which patient tissue samples are taken (immunocytes and erythrocytes from venous and capillary blood, smears and prints from atherosclerotic plaques after surgical intervention, and cells from urinary and salivary sediment), microdrugs are prepared, specific anti-viral immunoglobulins are processed (for types 1 and 2 herpes viruses, the cytomegalovirus, the herpes Zoster virus, the Epstein-Barr virus, the herpes 6 virus, or the combinations thereof), the number of cells infected by two or more viruses before the beginning of treatment, during treatment, and after treatment are determined with the application of anti-viral therapy, and the dynamic of the change in the number of infected cells and their interrelationships are established: if the number of cells infected by two or more viruses, among which cytomegalovirus must be found, exceeds 50±10% in patients with cardiovascular disease, a diagnostic conclusion of the threat of atherosclerosis complications such as myocardial infarction and stroke, as well as of complications such as arrhythmia, thrombic embolisms, severe left ventricular failure, repeated myocardial infarction, cardiogenic shock, and a high possibility of a fatal result; the method can also be used in patients with cardiovascular diseases after treatment through a method of a combination of traditional methods and the use of anti-viral drugs and a change is seen in the percentage of infected cells after treatment if the number of cells infected by two or more viruses decreases by more than 20±10% in repeat diagnostics, the treatment is considered successful, whereas if a decrease by 20±10% in the number of cells infected by cytomegalovirus and any other aforementioned virus in repeat diagnostics is not seen, a conclusion is drawn on the ineffectiveness of the therapy applied in that period and the need to change the antiviral therapy scheme.

Another experiment concerns Epstein-Barr virus. Briefly: IIF of patients' blood immunocytes: cells infected with Epstein-Barr virus. The procedure:
as §1

The next experiment relates to HSV-1. Briefly: IIF of patients' blood immunocytes: cells infected with herpes type 1 virus.
Description: […]

Experiment [4] can be described thus: Clinical condition of treated patient with ischemic heart disease.
A short description of experiment [5]: Free-radical acidization of lipids, serum indicators of treated patient. As to conditions: Example 1, after Valacyclovir with Nitrosorbidum and Corinfar.
Where [6] appears, read: Example 2, after Valacyclovir 3 courses of 7 days, before 50% of cells infected.

With `CCC(C)(C)C(=O)O[C@H]1C[C@@H](C)C=C2C=C[C@H](C)[C@H](CC[C@@H]3C[C@@H](O)CC(=O)O3)[C@H]21` [simvastatin], the total cholesterol in experiment [1] (Example 2, patient two, after six months of simvastatin 10 mg/day (with metoprolol, enalapril, aspirin), goal indicator 5.0 mmoles/l) was found to be 4.9 mmoles/1; in experiment [1] (Example 3, patient, after five months of simvastatin 10 mg/day (with metoprolol, aspirin), goal indicator 5.0 mmoles/l), 5.6 mmoles/1; in experiment [1] (Example 4, patient one, after six months of Zocor 20 mg/day (with Corvitol, Renitec, aspirin), goal indicator 4.0 mmoles/l), 3.9 mmoles/1. In addition, the triglycerides in experiment [1] (Example 2, after six months of simvastatin 10 mg/day) was 1.55 mmol/L; in experiment [1] (Example 3, after five months of simvastatin 10 mg/day), 2.55 mmol/L; in experiment [1] (Example 4, after six months of Zocor 20 mg/day) it was 1.4 mmol/L.

For `CC(C)[C@H](N)C(=O)OCCOCn1cnc2c(=O)[nH]c(N)nc21` [Valacyclovir], the “capacity of the left ventricle” value in experiment [2] (before 2.02) is on record as 2.29 W. In addition, the energy loss in experiment [2] (before 15.96) is 10.37 conditional units. Besides, the specific peripheral resistance in experiment [2] (before 74.53) is reported as 65.97 conditional units. In experiment [2] (before 126.5), this compound showed a flow rate of 169.71 mL/s. Besides, in experiment [2] (before 2917.9), the “total peripheral vascular resistance” value was determined as 2673.6 dyn s cm^−5. In addition, the “NST on the electrocardiogram” value in experiment [3] (before 10.0) worked out at 0. The “SST on the electrocardiogram” value in experiment [3] (before 11.0) worked out at 0. For the same compound, the “T index on the electrocardiogram” value in experiment [3] (before 35.0) is 0. For the same compound, the “total cholesterol in blood serum” value in experiment [1] (Example 1, patient one, after Valacyclovir 1.0 g three times a day with Nitrosorbidum and Corinfar, before 6.71) was found to be 3.26 mmol/L. This compound returned a cholesterol/HDL in experiment [1] (Example 1, after Valacyclovir with Nitrosorbidum and Corinfar, before 1.17) of 1.20 mmol/L. Besides, in experiment [1] (Example 1, after Valacyclovir with Nitrosorbidum and Corinfar, before 1.55), the LDL was 0.47 mmol/L. The “triglycerides in blood serum” value in experiment [1] (Example 1, after Valacyclovir with Nitrosorbidum and Corinfar, before 3.4) came to 1.04 mmol/L. In addition, the cholesterol/LDL in experiment [1] (Example 1, after Valacyclovir with Nitrosorbidum and Corinfar, before 3.99) amounted to 3.68 mmol/L. Besides, the atherogenesis index in experiment [1] (Example 1, after Valacyclovir with Nitrosorbidum and Corinfar, before 4.74) was found to be 3.38. Besides, in experiment [1] (Example 1, after Valacyclovir with Nitrosorbidum and Corinfar, before 770), the “b-lipoproteins in blood serum” value is given as 310 conditional units. Moreover, the triglycerides in experiment [1] (Example 2, after Valacyclovir 1.0 g 3×/day for 3 courses of 7 days, before 1.55) was determined as 1.3 mmol/L; in experiment [1] (Example 3, after Valacyclovir 1 g 3×/day for 5 courses of 7 days, before 2.55) it was 1.95 mmol/L; in experiment [1] (Example 4, after combination therapy Valacyclovir with immunoglobulin and Laferobion, before 1.4), 1.3 mmoles/1. Also, the total cholesterol in experiment [1] (Example 2, after Valacyclovir 1.0 g 3×/day for 3 courses of 7 days, before 4.9) was found to be 4.7 mmoles/1; in experiment [1] (Example 3, after Valacyclovir 1 g 3×/day for 5 courses of 7 days with 7-day intervals, before 5.6), 4.9 mmol/L; in experiment [1] (Example 4, after combination therapy: Valacyclovir 1.0 g 3 times a day, three courses of seven days, with immunoglobulin and Laferobion, before 3.9) it was 1.5 mmoles/1. In the experiment with cytomegalovirus (Example 1, after Valacyclovir with Nitrosorbidum and Corinfar, before 60% of cells infected), the “blood immunocytes infected with CMV (IIF)” value is 20%. Also, in the experiment with cytomegalovirus (setting [6]), the “CMV in the blood immunocytes (IIF)” value is reported as “not present”. Moreover, the “immunocytes infected with cytomegalovirus (IIF)” value in the experiment with cytomegalovirus (Example 3, after Valacyclovir 5 courses of 7 days, before 50% of cells infected) was 10%. Besides, the “cytomegalovirus antigens in immunocytes, repeat IIF study” value with cytomegalovirus (Example 4, two months after combination therapy Valacyclovir with immunoglobulin and Laferobion, before 30% of cells infected) was “did not discover antigens”. Besides, the “blood immunocytes infected with EBV (IIF)” value amounted to 50% in the experiment on Epstein-Barr virus (Example 1, after Valacyclovir with Nitrosorbidum and Corinfar, before 70% of cells infected); 10% in the experiment with Epstein-Barr virus (setting [6]). Besides, the “Epstein-Barr virus antigens in immunocytes, repeat IIF study” value in the experiment on Epstein-Barr virus (Example 4, two months after combination therapy Valacyclovir with immunoglobulin and Laferobion, before 50% of cells infected) is given as “did not discover antigens”. Also, the “immunocytes infected with HSV-1 (IIF)” value with HSV-1 (Example 3, after Valacyclovir 5 courses of 7 days, before 70% of cells infected) turned out to be 30%. For the same compound, in the experiment with HSV-1 (Example 4, two months after combination therapy Valacyclovir with immunoglobulin and Laferobion, before 60% of cells infected), the “herpes type 1 virus antigens in immunocytes, repeat IIF study” value was “did not discover antigens”. Moreover, in experiment [4] (Example 1, within seven weeks, Valacyclovir with Nitrosorbidum and Corinfar), the “patient's condition” value is listed as “improved significantly”. Also, the “angina pain and shortness of breath” value in experiment [4] (Example 1, within seven weeks, Valacyclovir with Nitrosorbidum and Corinfar, nitroglycerine tablets not used) was “not present”. In experiment [4] (summary of the examples, standard treatment scheme combined with Valacyclovir), the “lipidogram, peroxide acidization of lipids, electrocardiography and tetrapolar rheography indicators” value was “normalized”. In experiment [5] (before 0.23), this compound had a triethynoid conjugates of 0.14 mcmol/ml. The compound further had a serum malondialdehyde in experiment [5] (before 0.50) of 0.31 mcmol/ml. The same compound showed a diethynoid conjugates in experiment [5] (before 1.332) of 0.70 mcmol/ml. The same compound showed an a-tocopherol content in experiment [5] (before 2.69) of 4.32 mcmol/ml. Further, in experiment [5] (before 12.4), the glutathione reductase activity was 22.0 mcmol/l h.
